Experimental data: PubChem BioAssay (NCI)
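1) Cells in 96-well plates. 2) Compound, 48 h, 5 concentrations. 3) Linear interpolation between surrounding doses. 4) Unreached endpoint = highest concentration. Definition used: TGI = concentration required for complete inhibition of growth.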

Experiments:
Experiment in all cases: NCI tumour cell line growth inhibition, 48 h
786-0 renal = test system: 786-0 renal
A498 renal = test system: A498 renal
A549 NSCLC = test system: A549 NSCLC
ACHN renal = test system: ACHN renal
CAKI-1 renal = test system: CAKI-1 renal
CCRF-CEM leukemia = test system: CCRF-CEM leukemia
COLO 205 colon = test system: COLO 205 colon
DLD-1 colon = test system: DLD-1 colon
DMS 114 small cell lung = test system: DMS 114 small cell lung
DMS 273 small cell lung = test system: DMS 273 small cell lung
HCC-2998 colon = test system: HCC-2998 colon
HCT-116 colon = test system: HCT-116 colon
HCT-15 colon = test system: HCT-15 colon
HL-60(TB) leukemia = test system: HL-60(TB) leukemia
HOP-18 NSCLC = test system: HOP-18 NSCLC
HOP-62 NSCLC = test system: HOP-62 NSCLC
HOP-92 NSCLC = test system: HOP-92 NSCLC
HT29 colon = test system: HT29 colon
IGROV1 ovarian = test system: IGROV1 ovarian
K-562 leukemia = test system: K-562 leukemia
KM12 colon = test system: KM12 colon
KM20L2 colon = test system: KM20L2 colon
LOX IMVI melanoma = test system: LOX IMVI melanoma
LXFL 529 NSCLC = test system: LXFL 529 NSCLC
M14 melanoma = test system: M14 melanoma
M19-MEL melanoma = test system: M19-MEL melanoma
MALME-3M melanoma = test system: MALME-3M melanoma
MOLT-4 leukemia = test system: MOLT-4 leukemia
NCI-H460 lung = test system: NCI-H460 lung
NCI-H522 lung = test system: NCI-H522 lung
OVCAR-4 ovarian = test system: OVCAR-4 ovarian
OVCAR-5 ovarian = test system: OVCAR-5 ovarian
OVCAR-8 ovarian = test system: OVCAR-8 ovarian
RPMI-8226 leukemia = test system: RPMI-8226 leukemia
RXF 393 renal = test system: RXF 393 renal
RXF-631 renal = test system: RXF-631 renal
SF-268 CNS = test system: SF-268 CNS
SF-295 CNS = test system: SF-295 CNS
SF-539 CNS = test system: SF-539 CNS
SK-MEL-2 melanoma = test system: SK-MEL-2 melanoma
SK-MEL-5 melanoma = test system: SK-MEL-5 melanoma
SK-OV-3 ovarian = test system: SK-OV-3 ovarian
SN12C renal = test system: SN12C renal
SNB-19 CNS = test system: SNB-19 CNS
SNB-75 CNS = test system: SNB-75 CNS
SNB-78 CNS = test system: SNB-78 CNS
SR leukemia = test system: SR leukemia
SW-620 colon = test system: SW-620 colon
U251 CNS = test system: U251 CNS
UACC-257 melanoma = test system: UACC-257 melanoma
UACC-62 melanoma = test system: UACC-62 melanoma
UO-31 renal = test system: UO-31 renal
EKVX NSCLC = test system: EKVX NSCLC
NCI-H226 lung = test system: NCI-H226 lung
NCI-H23 lung = test system: NCI-H23 lung
OVCAR-3 ovarian = test system: OVCAR-3 ovarian
SK-MEL-28 melanoma = test system: SK-MEL-28 melanoma
TK-10 renal = test system: TK-10 renal
XF 498 CNS = test system: XF 498 CNS

SMILES: O=C(O)c1ccc([N+](=O)[O-])c2c(=O)c3ccccc3[nH]c12
- TGI (786-0 renal): > 100 µM
- TGI (A498 renal): > 100 µM
- TGI (A549 NSCLC): > 100 µM
- TGI (ACHN renal): > 100 µM
- TGI (CAKI-1 renal): > 100 µM
- TGI (CCRF-CEM leukemia): > 100 µM
- TGI (COLO 205 colon): > 100 µM
- TGI (DLD-1 colon): > 100 µM
- TGI (DMS 114 small cell lung): > 100 µM
- TGI (DMS 273 small cell lung): > 100 µM
- TGI (HCC-2998 colon): > 100 µM
- TGI (HCT-116 colon): > 100 µM
- TGI (HCT-15 colon): > 100 µM
- TGI (HL-60(TB) leukemia): > 100 µM
- TGI (HOP-18 NSCLC): > 100 µM
- TGI (HOP-62 NSCLC): > 100 µM
- TGI (HOP-92 NSCLC): > 100 µM
- TGI (HT29 colon): > 100 µM
- TGI (IGROV1 ovarian): > 100 µM
- TGI (K-562 leukemia): > 100 µM
- TGI (KM12 colon): > 100 µM
- TGI (KM20L2 colon): > 100 µM
- TGI (LOX IMVI melanoma): > 100 µM
- TGI (LXFL 529 NSCLC): > 100 µM
- TGI (M14 melanoma): > 100 µM
- TGI (M19-MEL melanoma): > 100 µM
- TGI (MALME-3M melanoma): > 100 µM
- TGI (MOLT-4 leukemia): > 100 µM
- TGI (NCI-H460 lung): > 100 µM
- TGI (NCI-H522 lung): > 100 µM
- TGI (OVCAR-4 ovarian): > 100 µM
- TGI (OVCAR-5 ovarian): > 100 µM
- TGI (OVCAR-8 ovarian): > 100 µM
- TGI (RPMI-8226 leukemia): > 100 µM
- TGI (RXF 393 renal): > 100 µM
- TGI (RXF-631 renal): > 100 µM
- TGI (SF-268 CNS): > 100 µM
- TGI (SF-295 CNS): > 100 µM
- TGI (SF-539 CNS): > 100 µM
- TGI (SK-MEL-2 melanoma): > 100 µM
- TGI (SK-MEL-5 melanoma): > 100 µM
- TGI (SK-OV-3 ovarian): > 100 µM
- TGI (SN12C renal): > 100 µM
- TGI (SNB-19 CNS): > 100 µM
- TGI (SNB-75 CNS): > 100 µM
- TGI (SNB-78 CNS): > 100 µM
- TGI (SR leukemia): > 100 µM
- TGI (SW-620 colon): > 100 µM
- TGI (U251 CNS): > 100 µM
- TGI (UACC-257 melanoma): > 100 µM
- TGI (UACC-62 melanoma): > 100 µM
- TGI (UO-31 renal): > 100 µM

SMILES: O=Cc1[nH]c2ccccc2c1Br
- TGI (786-0 renal): 66.3 µM
- TGI (A498 renal): 33.6 µM
- TGI (A549 NSCLC): > 100 µM
- TGI (ACHN renal): 82.7 µM
- TGI (CAKI-1 renal): > 100 µM
- TGI (CCRF-CEM leukemia): 99.2 µM
- TGI (COLO 205 colon): 34.7 µM
- TGI (DLD-1 colon): > 100 µM
- TGI (DMS 114 small cell lung): 44.7 µM
- TGI (DMS 273 small cell lung): 36.3 µM
- TGI (EKVX NSCLC): > 100 µM
- TGI (HCC-2998 colon): > 100 µM
- TGI (HCT-116 colon): 38.1 µM
- TGI (HL-60(TB) leukemia): 51.8 µM
- TGI (HOP-18 NSCLC): 83.4 µM
- TGI (HOP-62 NSCLC): 40.6 µM
- TGI (HOP-92 NSCLC): 66.8 µM
- TGI (HT29 colon): 58.6 µM
- TGI (IGROV1 ovarian): 70.2 µM
- TGI (K-562 leukemia): 47.4 µM
- TGI (KM12 colon): 50 µM
- TGI (KM20L2 colon): 41.5 µM
- TGI (LOX IMVI melanoma): 75.7 µM
- TGI (LXFL 529 NSCLC): 60.6 µM
- TGI (M14 melanoma): 46.3 µM
- TGI (M19-MEL melanoma): 59.7 µM
- TGI (MALME-3M melanoma): 45.1 µM
- TGI (MOLT-4 leukemia): 68.6 µM
- TGI (NCI-H226 lung): > 100 µM
- TGI (NCI-H23 lung): 87.8 µM
- TGI (NCI-H522 lung): > 100 µM
- TGI (OVCAR-3 ovarian): 56.5 µM
- TGI (OVCAR-4 ovarian): > 100 µM
- TGI (OVCAR-5 ovarian): > 100 µM
- TGI (OVCAR-8 ovarian): 64.4 µM
- TGI (RXF 393 renal): 67.8 µM
- TGI (RXF-631 renal): 44.1 µM
- TGI (SF-268 CNS): 69.8 µM
- TGI (SF-295 CNS): > 100 µM
- TGI (SF-539 CNS): 34.5 µM
- TGI (SK-MEL-2 melanoma): 31.2 µM
- TGI (SK-MEL-28 melanoma): 59.4 µM
- TGI (SK-MEL-5 melanoma): 31.1 µM
- TGI (SK-OV-3 ovarian): 44.9 µM
- TGI (SN12C renal): 50.5 µM
- TGI (SNB-19 CNS): 67.2 µM
- TGI (SNB-75 CNS): 52.6 µM
- TGI (SNB-78 CNS): 44.1 µM
- TGI (SR leukemia): 61.1 µM
- TGI (SW-620 colon): > 100 µM
- TGI (TK-10 renal): 74.3 µM
- TGI (U251 CNS): 51.1 µM
- TGI (UACC-257 melanoma): 67.4 µM
- TGI (UACC-62 melanoma): 33.7 µM
- TGI (UO-31 renal): 97 µM
- TGI (XF 498 CNS): 63.7 µM
